SMILES strings stand for the structures.

This assay has as its target T1, human IBAT (Homo sapiens, UniProt Q12908).
T1 construct: Bases 599 to 1645 correspond to the complete coding region of human IBAT; expressed in transfected cells; pcDNA1 vector
T1 sequence (Q12908 1-348): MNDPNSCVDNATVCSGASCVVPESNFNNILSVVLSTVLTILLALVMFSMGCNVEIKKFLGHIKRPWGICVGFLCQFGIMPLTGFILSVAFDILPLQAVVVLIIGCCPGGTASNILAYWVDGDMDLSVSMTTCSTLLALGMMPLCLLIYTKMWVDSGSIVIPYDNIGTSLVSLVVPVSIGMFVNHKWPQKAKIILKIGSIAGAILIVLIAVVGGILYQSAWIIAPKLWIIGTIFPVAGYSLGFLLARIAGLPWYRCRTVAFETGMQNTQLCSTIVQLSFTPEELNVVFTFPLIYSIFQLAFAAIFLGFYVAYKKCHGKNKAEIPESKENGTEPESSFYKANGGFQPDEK
The experiment in a line: in vitro IBAT inhibition assay: IBAT-dependent uptake of [3H]-taurocholic acid into CHO-hIBAT cells. The note with it: 10 μM taurocholic acid, 60 min at room temperature, read-out: IC-50 (human IBAT). The assay is classed as cell-based.

Protocol: The cell clone with the highest uptake activity for [^3H]-TCA, referred to hereinafter as CHO-hIBAT, was selected for the further assays and further cultured in the presence of 400 μg/ml Geneticin.
3. Measurement of the Inhibitory Effect of the Compound of the Invention on the IBAT-Dependent Uptake of Taurocholic Acid into Cells
CHO-hIBAT cells were seeded in a concentration of 40 000 cells per well in poly-D-lysine-coated 96-well plates in cell culture medium and cultured for 24 h. […] Finally, 100 μl of scintillation fluid were added to each well, and the radioactivity taken up into the cells was determined in a MicroBeta Scintillation Microplate Reader from Wallac.
The half-maximum inhibitory effect of the test compound (IC50 value, inhibitory concentration 50) was determined in the following way: • 1. […] This is the measurement in the absence of substance, measured in sodium-containing transport assay buffer. • 2. […] This is the measurement in the absence of substance, measured in sodium-free transport assay buffer. • 3. […]

With `CCCC[C@]1(CC)CS(=O)(=O)c2ccc(N(C)C)cc2[C@@H](c2cccc(NC(=O)N[C@@H]3O[C@H](CO)[C@@H](O)[C@H](O)[C@H]3O)c2)[C@H]1O` [Example 1], the IC50 was determined as 2.5 nM. As to `CCCCC1(CCCC)CS(=O)(=O)c2ccc(N(C)C)cc2[C@@H](c2cccc(NC(=O)N[C@@H]3O[C@H](CO)[C@@H](O)[C@H](O)[C@H]3O)c2)[C@H]1O` [Example 2], the IC50 was determined as 6 nM.

The record behind these values is patent US8106023B2, “1,4-benzothiepin-1, 1-dioxide derivatives with improved properties method for producing the same, drugs containing said compounds and the use thereof” (Sanofi-Aventis Deutschland GmbH, priority 2006, dated 2012).
